Assay results taken from patent publication US20090181963A1, “3H-[1,2,3]TRIAZOLO[4,5-D]PYRIMIDINE COMPOUNDS, THEIR USE AS mTOR KINASE AND PI3 KINASE INHIBITORS, AND THEIR [sequence]” (Wyeth, priority 2008, published 2009).
Structures can show the parent of a compound that is named as a salt. Where two headings read alike, the source gives them in different places.

What was measured:
[1] = test system: human tumor xenograft models; details: cited from earlier work
PI3K = details: reported, Raynaud et al 2007; read-out: IC50 PI3K (second named); cited from earlier work
mTOR enzymes = mTOR enzymes (Homo sapiens, UniProt P42345); details: read-out: IC50 mTOR enzymes; reported in the literature; cited from earlier work
PI3 Kinase α = PI3 Kinase α (Homo sapiens, UniProt P42336); assay: Fluorescence polarization assay for PI3K (PI3 Kinase α); format: biochemical; details: diC8-PI(4,5)P2 substrate, 25 μM ATP, one hour at 25° C.
Sequence of PI3 Kinase α (P42336 whole entry): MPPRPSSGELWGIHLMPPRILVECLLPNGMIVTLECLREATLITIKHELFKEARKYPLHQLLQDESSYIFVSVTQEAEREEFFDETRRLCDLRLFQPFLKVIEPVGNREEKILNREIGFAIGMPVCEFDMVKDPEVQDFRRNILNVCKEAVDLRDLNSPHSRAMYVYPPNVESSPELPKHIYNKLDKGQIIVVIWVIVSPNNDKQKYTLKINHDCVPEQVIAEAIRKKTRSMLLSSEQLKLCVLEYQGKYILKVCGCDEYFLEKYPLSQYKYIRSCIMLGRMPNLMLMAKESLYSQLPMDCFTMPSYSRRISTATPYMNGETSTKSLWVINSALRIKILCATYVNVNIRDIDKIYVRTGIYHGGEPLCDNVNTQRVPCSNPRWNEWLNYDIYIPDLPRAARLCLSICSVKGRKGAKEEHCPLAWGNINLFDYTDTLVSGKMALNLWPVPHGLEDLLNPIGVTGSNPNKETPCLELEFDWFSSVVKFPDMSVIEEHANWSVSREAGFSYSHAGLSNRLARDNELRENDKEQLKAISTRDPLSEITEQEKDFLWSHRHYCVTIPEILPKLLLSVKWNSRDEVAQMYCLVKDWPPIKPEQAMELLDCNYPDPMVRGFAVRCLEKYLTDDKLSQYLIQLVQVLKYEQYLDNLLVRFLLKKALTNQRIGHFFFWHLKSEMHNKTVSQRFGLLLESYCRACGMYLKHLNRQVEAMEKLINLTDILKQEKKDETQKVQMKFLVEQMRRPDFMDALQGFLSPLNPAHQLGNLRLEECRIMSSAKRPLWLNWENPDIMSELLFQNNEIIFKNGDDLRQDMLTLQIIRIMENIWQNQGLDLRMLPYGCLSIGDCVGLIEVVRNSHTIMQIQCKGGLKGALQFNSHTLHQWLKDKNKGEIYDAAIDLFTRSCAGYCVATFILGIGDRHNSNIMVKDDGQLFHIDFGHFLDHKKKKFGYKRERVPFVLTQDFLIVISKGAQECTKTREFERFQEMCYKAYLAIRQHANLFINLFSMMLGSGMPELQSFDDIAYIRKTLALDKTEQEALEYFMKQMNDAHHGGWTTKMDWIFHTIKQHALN
Sequence of PI3 Kinase α (P27986 whole entry partner): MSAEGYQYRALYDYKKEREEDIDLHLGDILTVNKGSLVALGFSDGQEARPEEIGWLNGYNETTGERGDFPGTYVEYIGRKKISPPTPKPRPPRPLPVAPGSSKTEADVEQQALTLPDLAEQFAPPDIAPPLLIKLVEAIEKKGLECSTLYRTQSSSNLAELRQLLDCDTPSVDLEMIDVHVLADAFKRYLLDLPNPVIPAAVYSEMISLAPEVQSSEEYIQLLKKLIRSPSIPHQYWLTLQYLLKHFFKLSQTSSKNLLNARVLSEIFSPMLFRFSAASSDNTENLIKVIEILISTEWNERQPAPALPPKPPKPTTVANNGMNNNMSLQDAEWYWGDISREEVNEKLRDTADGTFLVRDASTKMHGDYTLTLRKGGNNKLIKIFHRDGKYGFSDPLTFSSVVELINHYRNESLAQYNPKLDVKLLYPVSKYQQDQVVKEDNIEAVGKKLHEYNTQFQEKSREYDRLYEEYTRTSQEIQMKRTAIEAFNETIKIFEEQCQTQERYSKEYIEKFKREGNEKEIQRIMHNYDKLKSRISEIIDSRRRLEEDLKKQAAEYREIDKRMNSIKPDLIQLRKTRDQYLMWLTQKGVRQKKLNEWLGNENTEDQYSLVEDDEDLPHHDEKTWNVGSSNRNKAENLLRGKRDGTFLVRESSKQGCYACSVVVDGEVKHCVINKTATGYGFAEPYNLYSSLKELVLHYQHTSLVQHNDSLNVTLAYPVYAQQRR

PI3 Kinase γ = PI3 Kinase γ (Homo sapiens, UniProt P48736); assay: Fluorescence polarization assay for PI3K (PI3 Kinase γ); format: biochemical; details: diC8-PI(4,5)P2 substrate, 25 μM ATP, one hour at 25° C.
Sequence of PI3 Kinase γ (P48736 whole entry): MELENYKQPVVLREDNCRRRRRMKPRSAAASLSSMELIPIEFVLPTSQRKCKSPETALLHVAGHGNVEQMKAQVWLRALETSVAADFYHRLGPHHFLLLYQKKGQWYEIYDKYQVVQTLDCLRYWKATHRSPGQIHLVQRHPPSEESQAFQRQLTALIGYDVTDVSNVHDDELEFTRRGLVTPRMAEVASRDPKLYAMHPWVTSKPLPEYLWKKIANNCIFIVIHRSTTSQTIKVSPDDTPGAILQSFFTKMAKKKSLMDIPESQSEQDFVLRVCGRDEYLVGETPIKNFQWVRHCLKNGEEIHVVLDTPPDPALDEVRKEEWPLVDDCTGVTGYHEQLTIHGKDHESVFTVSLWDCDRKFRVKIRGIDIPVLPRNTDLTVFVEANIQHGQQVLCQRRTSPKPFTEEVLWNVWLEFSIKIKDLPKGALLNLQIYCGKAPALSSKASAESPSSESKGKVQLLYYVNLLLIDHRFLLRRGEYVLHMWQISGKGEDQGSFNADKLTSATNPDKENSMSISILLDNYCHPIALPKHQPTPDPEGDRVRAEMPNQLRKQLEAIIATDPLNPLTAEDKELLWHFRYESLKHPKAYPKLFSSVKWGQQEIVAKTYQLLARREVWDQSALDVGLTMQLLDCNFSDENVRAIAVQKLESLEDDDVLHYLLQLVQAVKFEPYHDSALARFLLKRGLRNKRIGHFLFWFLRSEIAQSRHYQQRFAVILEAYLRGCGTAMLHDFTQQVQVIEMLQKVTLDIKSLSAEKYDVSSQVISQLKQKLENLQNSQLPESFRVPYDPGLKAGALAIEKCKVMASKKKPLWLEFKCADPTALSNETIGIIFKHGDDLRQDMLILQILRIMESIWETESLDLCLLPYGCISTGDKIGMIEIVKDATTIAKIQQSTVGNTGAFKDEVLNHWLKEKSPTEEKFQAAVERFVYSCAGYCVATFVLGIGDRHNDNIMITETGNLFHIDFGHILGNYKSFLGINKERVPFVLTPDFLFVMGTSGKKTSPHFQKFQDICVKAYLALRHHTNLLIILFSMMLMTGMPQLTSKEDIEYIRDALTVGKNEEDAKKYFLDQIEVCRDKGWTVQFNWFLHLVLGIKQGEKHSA

**Q.** With CO[C@H]1C[C@@H]2CC[C@@H](C)[C@@](O)(O2)C(=O)C(=O)N2CCCC[C@H]2C(=O)O[C@H]([C@H](C)C[C@@H]2CC[C@@H](OC(=O)C(C)(CO)CO)[C@H](OC)C2)CC(=O)[C@H](C)/C=C(\C)[C@@H](O)[C@@H](OC)C(=O)[C@H](C)C[C@H](C)/C=C/C=C/C=C/1C [Torisel] as the molecule, how does the “activity in xenograft mouse model” value ([1]; NOS/SCID xenograft mouse model of acute lymphoblastic leukemia) read?
**A.** The value was “active”.

**Q.** Which IC50 (PI3K) does the source give for Oc1cccc(-c2nc(N3CCOCC3)c3oc4ncccc4c3n2)c1 [PI103, 3-(4-(4-morpholinyl)pyrido[3′,2′:4,5]furo[3,2-d]pyrimidin-2-yl)phenol] here?
**A.** Its IC50 is […].

**Q.** What about the “activity in human tumor xenograft models” value ([1]; I.P. dosing in mice, U87MG, PC3, MDA-MB-468, MDA-MB-435, HCT 116, SKOV3, IGROV-1) of the same molecule?
**A.** The value was “demonstrated activity”.

**Q.** With FC(F)c1nc2ccccc2n1-c1nc(N2CCOCC2)nc(N2CCOCC2)n1 [ZSTK474, 2-(2-difluoromethylbenzoimidazol-1-yl)-4,6-dimorpholino-1,3,5-triazine] as the molecule, how does the “tumor growth in mouse human xenograft cancer models” value ([1]; chronic oral administration, 400 mg/kg, A549, PC-3, WiDr) read?
**A.** The value was “completely inhibited growth”.

**Q.** What about the IC50 (mTOR enzymes) of the same molecule?
**A.** Its IC50 is over 10 µM.

**Q.** With Cn1c(=O)n(-c2ccc(C(C)(C)C#N)cc2)c2c3cc(-c4cnc5ccccc5c4)ccc3ncc21 [NVP-BEZ-235, 2-methyl-2-(4-(3-methyl-2-oxo-8-(quinolin-3-yl)-2,3-dihydro-1H-imidazo[4,5-c]quinolin-1-yl)phenyl)propanenitrile] as the molecule, how does the “activity in human tumor xenograft models” value ([1]; prostrate (PC-3) and glioblastoma (U-87)) read?
**A.** Its value is “demonstrated activity”.

**Q.** With Cc1ccc(CN2CCC(n3nnc4c(N5CCOCC5)nc(-c5cncc(O)c5)nc43)CC2)s1 [Example 21, 5-(3-{1-[(5-methyl-2-thienyl)methyl]piperidin-4-yl}-7-morpholin-4-yl-3H-[1,2,3]triazolo[4,5-d]pyrimidin-5-yl)pyridin-3-ol] as the molecule, how does the IC50 (PI3 Kinase α) read?
**A.** Its IC50 is 66 nM.

**Q.** And the IC50 (PI3 Kinase γ)?
**A.** Its IC50 is 240 nM.

**Q.** Which results are given for Oc1cncc(-c2nc(N3CCOCC3)c3nnn(C4CCN(Cc5ccc(-c6ccncc6)cc5)CC4)c3n2)c1 [Example 31, 5-{7-morpholin-4-yl-3-[1-(4-pyridin-4-ylbenzyl)piperidin-4-yl]-3H-[1,2,3]triazolo[4,5-d]pyrimidin-5-yl}pyridin-3-ol]?
**A.** IC50 (PI3 Kinase α): 298 nM; IC50 (PI3 Kinase γ): 2280 nM

**Q.** Which IC50 (PI3 Kinase α) does the source give for O=C(NCCc1ccccc1)c1ccc(Cn2nnc3c(N4CCOCC4)nc(-c4cccc(O)c4)nc32)cc1 [Example 223, 4-{[5-(3-hydroxyphenyl)-7-morpholin-4-yl-3H-[1,2,3]triazolo[4,5-d]pyrimidin-3-yl]methyl}-N-(2-phenylethyl)benzamide] here?
**A.** Its IC50 is 175 nM.

**Q.** And the IC50 (PI3 Kinase γ)?
**A.** Its IC50 is 2510 nM.

**Q.** Which results are given for Cc1ccc(NC(=O)Nc2ccc(-c3nc(N4CCOCC4)c4nnn(C(C)C)c4n3)cc2)cc1 [Example 90, 1-(4-methyl-phenyl)-3-[4-(3-isopropyl-7-morpholin-4-yl-3H-[1,2,3]triazolo[4,5-d]pyrimidin-5-yl)-phenyl]-urea]?
**A.** IC50 (PI3 Kinase α): 34.5 nM; IC50 (PI3 Kinase γ): 100 nM

**Q.** Which results are given for O=C(c1ccc(Cn2nnc3c(N4CCOCC4)nc(-c4cccc(O)c4)nc32)cc1)N1CCN(c2ccccc2)CC1 [Example 229, 3-(7-morpholin-4-yl-3-{4-[(4-phenylpiperazin-1-yl)carbonyl]benzyl}-3H-[1,2,3]triazolo[4,5-d]pyrimidin-5-yl)phenol]?
**A.** IC50 (PI3 Kinase α): 286 nM; IC50 (PI3 Kinase γ): 10200 nM

**Q.** What does the source list for CNC(=O)c1cccc(-n2nnc3c(N4CCOCC4)nc(-c4cccc(O)c4)nc32)c1 [Example 121, 3-[5-(3-hydroxyphenyl)-7-morpholin-4-yl-3H-[1,2,3]triazolo[4,5-d]pyrimidin-3-yl]-N-methylbenzamide]?
**A.** IC50 (PI3 Kinase α): 36 nM; IC50 (PI3 Kinase γ): 551 nM

**Q.** Which IC50 (PI3 Kinase α) does the source give for CN(C)CCNC(=O)Nc1ccc(-c2nc(N3CCOCC3)c3nnn(C4CCN(Cc5cccnc5)CC4)c3n2)cc1 [Example 154, 1-(2-(dimethylamino)ethyl)-3-(4-(7-morpholino-3-(1-(pyridin-3-ylmethyl)piperidin-4-yl)-3H-[1,2,3]triazolo[4,5-d]pyrimidin-5-yl)phenyl)urea] here?
**A.** The IC50 was 206 nM.

**Q.** What about the IC50 (PI3 Kinase γ) of the same molecule?
**A.** The IC50 was 58 nM.

**Q.** With O=C(Nc1ccc(-c2nc(N3CCOCC3)c3nnn(CC(F)(F)F)c3n2)cc1)Nc1cccnc1 [Example 135, 1-{4-[7-morpholin-4-yl-3-(2,2,2-trifluoroethyl)-3H-[1,2,3]triazolo[4,5-d]pyrimidin-5-yl]phenyl}-3-pyridin-3-ylurea] as the molecule, how does the IC50 (PI3 Kinase α) read?
**A.** Its IC50 is 9.5 nM.

**Q.** What about the IC50 (PI3 Kinase γ) of the same molecule?
**A.** Its IC50 is 30 nM.

**Q.** What does the source list for O=C(c1ccccc1)N1CCN(CCn2nnc3c(N4CCOCC4)nc(-c4cccc(O)c4)nc32)CC1 [Example 99, 3-{3-[2-(4-benzoylpiperazin-1-yl)ethyl]-7-morpholin-4-yl-3H-[1,2,3]triazolo[4,5-d]pyrimidin-5-yl}phenol]?
**A.** IC50 (PI3 Kinase α): 924 nM; IC50 (PI3 Kinase γ): 5750 nM

**Q.** With CCn1nnc2c(N3CCOCC3)nc(-c3ccc(NC(=O)Nc4ccc(C(=O)NCCN5CCOCC5)cc4)cc3)nc21 [Example 53, 4-({[4-(3-ethyl-7-morpholin-4-yl-3H-[1,2,3]triazolo[4,5-d]pyrimidin-5-yl)phenyl]carbamoyl}amino)-N-(2-morpholin-4-ylethyl)benzamide] as the molecule, how does the IC50 (PI3 Kinase α) read?
**A.** Its IC50 is 3.5 nM.

**Q.** And the IC50 (PI3 Kinase γ)?
**A.** Its IC50 is 29 nM.

**Q.** For COC(=O)c1cccc(-n2nnc3c(N4CCOCC4)nc(-c4cccc(O)c4)nc32)c1 [Example 115, methyl 3-[5-(3-hydroxyphenyl)-7-morpholin-4-yl-3H-[1,2,3]triazolo[4,5-d]pyrimidin-3-yl]benzoate], which IC50 (PI3 Kinase α) is on record?
**A.** Its IC50 is 240 nM.

**Q.** What about the IC50 (PI3 Kinase γ) of the same molecule?
**A.** The IC50 was 3630 nM.

**Q.** Which IC50 (PI3 Kinase α) does the source give for CN(C)CCNC(=O)Nc1ccc(-c2nc(N3CCOCC3)c3nnn(C4CCN(C(=O)OC(C)(C)C)CC4)c3n2)cc1 [Example 151, tert-butyl 4-(5-(4-(3-(2-(dimethylamino)ethyl)ureido)phenyl)-7-morpholino-3H-[1,2,3]triazolo[4,5-d]pyrimidin-3-yl)piperidine-1-carboxylate] here?
**A.** The IC50 was 296 nM.

**Q.** What about the IC50 (PI3 Kinase γ) of the same molecule?
**A.** Its IC50 is 748 nM.

**Q.** Which IC50 (PI3 Kinase α) does the source give for Cn1nnc2c(N3CCOCC3)nc(-c3ccc(NC(=O)Nc4cccs4)cc3)nc21 [Example 200, 1-[4-(3-methyl-7-morpholin-4-yl-3H-[1,2,3]triazolo[4,5-d]pyrimidin-5-yl)phenyl]-3-(2-thienyl)urea] here?
**A.** Its IC50 is 6.5 nM.

**Q.** What about the IC50 (PI3 Kinase γ) of the same molecule?
**A.** The IC50 was 22 nM.

**Q.** With COC(=O)c1ccc(Cn2nnc3c(N4CCOCC4)nc(-c4cccc(CO)c4)nc32)cc1 [Example 243, methyl 4-({5-[3-(hydroxymethyl)phenyl]-7-morpholin-4-yl-3H-[1,2,3]triazolo[4,5-d]pyrimidin-3-yl}methyl)benzoate] as the molecule, how does the IC50 (PI3 Kinase α) read?
**A.** Its IC50 is 765 nM.

**Q.** And the IC50 (PI3 Kinase γ)?
**A.** The IC50 was 9590 nM.

**Q.** With O=C(Nc1ccncc1)Nc1ccc(-c2nc(N3CCOCC3)c3nnn(C4CCOCC4)c3n2)cc1 (as salt: HCl) [Example 198, 1-{4-[7-morpholin-4-yl-3-(tetrahydro-2H-pyran-4-yl)-3H-[1,2,3]triazolo[4,5-d]pyrimidin-5-yl]phenyl}-3-pyridin-4-ylurea] as the molecule, how does the melting point read?
**A.** The melting point was 332 °C.

**Q.** Which results are given for Oc1cccc(-c2nc(N3CCOCC3)c3nnn(C4CCN(Cc5ccccc5)CC4)c3n2)c1 [Example 1, 3-[3-(1-benzylpiperidin-4-yl)-7-morpholin-4-yl-3H-[1,2,3]triazolo[4,5-d]pyrimidin-5-yl]phenol]?
**A.** IC50 (PI3 Kinase α): 121 nM; IC50 (PI3 Kinase γ): 667 nM

**Q.** Which IC50 (PI3 Kinase α) does the source give for O=C(NCCc1c[nH]c2ccccc12)c1ccc(Cn2nnc3c(N4CCOCC4)nc(-c4cccc(O)c4)nc32)cc1 [Example 225, 4-{[5-(3-hydroxyphenyl)-7-morpholin-4-yl-3H-[1,2,3]triazolo[4,5-d]pyrimidin-3-yl]methyl}-N-[2-(1H-indol-3-yl)ethyl]benzamide] here?
**A.** Its IC50 is 43 nM.

**Q.** And the IC50 (PI3 Kinase γ)?
**A.** The IC50 was 135 nM.

**Q.** With COc1ccc(NC(=O)Nc2ccc(-c3nc(N4CCOCC4)c4nnn(CCO)c4n3)cc2)cc1 [Example 185, 1-{4-[3-(2-hydroxyethyl)-7-morpholin-4-yl-3H-[1,2,3]triazolo[4,5-d]pyrimidin-5-yl]phenyl}-3-(4-methoxyphenyl)urea] as the molecule, how does the IC50 (PI3 Kinase α) read?
**A.** The IC50 was 14 nM.

**Q.** And the IC50 (PI3 Kinase γ)?
**A.** Its IC50 is 44.7 nM.

**Q.** Which results are given for OCc1cccc(-c2nc(N3CCOCC3)c3nnn(C4CCNCC4)c3n2)c1 [Example 176, [3-(7-morpholin-4-yl-3-piperidin-4-yl-3H-[1,2,3]triazolo[4,5-d]pyrimidin-5-yl)phenyl]methanol]?
**A.** IC50 (PI3 Kinase α): 23.7 nM; IC50 (PI3 Kinase γ): 164 nM

**Q.** Which results are given for CC(C)n1nnc2c(N3CCOCC3)nc(-c3ccc(NC(=O)Nc4cnoc4)cc3)nc21 [Example 94, 1-[4-(3-isopropyl-7-morpholin-4-yl-3H-[1,2,3]triazolo[4,5-d]pyrimidin-5-yl)-phenyl]-3-isoxazol-4-yl-urea]?
**A.** IC50 (PI3 Kinase α): 34.5 nM; IC50 (PI3 Kinase γ): 132 nM

**Q.** Which IC50 (PI3 Kinase α) does the source give for Nc1ccc(-c2nc(N3CCOCC3)c3nnn(CC(F)(F)F)c3n2)cc1 [Example 133, 4-[7-morpholin-4-yl-3-(2,2,2-trifluoroethyl)-3H-[1,2,3]triazolo[4,5-d]pyrimidin-5-yl]aniline] here?
**A.** Its IC50 is 370 nM.

**Q.** And the IC50 (PI3 Kinase γ)?
**A.** Its IC50 is 1380 nM.

**Q.** With O=C(Nc1ccc(-c2nc(N3CCOCC3)c3nnn(C4CC4)c3n2)cc1)Nc1cccs1 [Example 80, 1-(4-(3-cyclopropyl-7-morpholino-3H-[1,2,3]triazolo[4,5-d]pyrimidin-5-yl)phenyl)-3-(thiophen-2-yl)urea] as the molecule, how does the IC50 (PI3 Kinase α) read?
**A.** The IC50 was 3 nM.

**Q.** What about the IC50 (PI3 Kinase γ) of the same molecule?
**A.** The IC50 was 19.5 nM.

**Q.** For CCNC(=O)c1ccc(Cn2nnc3c(N4CCOCC4)nc(-c4cccc(O)c4)nc32)cc1 [Example 219, N-ethyl-4-{[5-(3-hydroxyphenyl)-7-morpholin-4-yl-3H-[1,2,3]triazolo[4,5-d]pyrimidin-3-yl]methyl}benzamide], which IC50 (PI3 Kinase α) is on record?
**A.** The IC50 was 260 nM.

**Q.** And the IC50 (PI3 Kinase γ)?
**A.** The IC50 was 1840 nM.

**Q.** What does the source list for CC(C)n1nnc2c(N3CCOCC3)nc(-c3ccc(N)cc3)nc21 [Example 81, 4-(3-isopropyl-7-morpholin-4-yl-3H-[1,2,3]triazolo[4,5-d]pyrimidin-5-yl)-phenylamine]?
**A.** IC50 (PI3 Kinase α): 1030 nM; IC50 (PI3 Kinase γ): 4630 nM

**Q.** Which IC50 (PI3 Kinase α) does the source give for Cn1nnc2c(N3CCOCC3)nc(-c3ccc(NC(=O)Nc4ccsc4)cc3)nc21 [Example 201, 1-[4-(3-methyl-7-morpholin-4-yl-3H-[1,2,3]triazolo[4,5-d]pyrimidin-5-yl)phenyl]-3-(3-thienyl)urea] here?
**A.** The IC50 was 4.5 nM.

**Q.** What about the IC50 (PI3 Kinase γ) of the same molecule?
**A.** The IC50 was 25.5 nM.

**Q.** What about the melting point of the same molecule?
**A.** Its melting point is 272 °C.
